The values that follow come from patent US5470858A, “Derivatives of (hetero)aromatic ethers and thioethers having antihyperlipidemic activity, process for their preparation and pharmaceutical compositions containing them” (Pierrel SpA, priority 1991, dated 1995).

Where a name gives a salt, the structure may show the parent alone. Read-outs that look alike come from different tables or passages of the source.

This series concerns hyperlipaemic SD male rats. The experiment in a line: Hypolipemizing activity, 5 days experimental model, modified Nath diet. As to conditions: rat, oral; for change in vivo at 100 mg/kg/day / change in vivo at 300 mg/kg/day: 120 h; for Hepatic index (percent variation vs hyperlipaemic controls): index = (Liver weight/body weight) × 100. Format: in vivo. As for the experimental part: The hypolipemizing activity of the compounds of the present invention has been evaluated in the rat using SD male animals (Charles River) of an initial weight of 150 g, housed in controlled environment at a temperature of 21°±1° C., relative humidity 60% and a 12 hours light/dark cycle.
Experimental models have been used in which the animals are rendered hiperlipaemic by "ad libitum" food administration with a modified Nath diet (Atherosclerosis 30, 1978, pag. 45-46) having the following composition: […]
hydrogenated coconut oil
In the first model the animals have been fed with this diet for 5 consecutive days, during which they received the pharmacological treatment once a day by oral route and were sacrificed 2 hours after the last administration.
At the time of the sacrifice the blood was removed, for the lipid determination, as well as the liver the weight of which was the index of a possible hepatomegaly.
By this experimental model the concentration of the serum lipids attained very high values which, in the control group, was four times the normal values for the total cholesterol and the triglycerides.
The determination of the triglycerides, of the total cholesterol and of the cholesterol associated to the HDL has been effected by means of a commercial enzymatic kit. The concentration of the cholesterol associated to VLDL+LDL has been determined by difference between total cholesterol and HDL.
The results obtained in the experimental model of the 5 days duration for some compounds representative of the invention are reported in the following table 1. The data are expressed as percent variation with respect to the hyperlipaemic controls to which carboxymethylcellulose as 0.5% in water at the dose of 10 ml/kg/day by oral route was administered. The same vehicle was used for the suspension of the tested compounds at the doses of 100 and 300 mg/kg/day by oral route.

Where [1] appears, read: 100 mg/kg/day, by difference between total and HDL, read-out: Cholesterol VLDL + LDL (percent variation vs hyperlipaemic controls).
The mark [2] stands for this setting: 100 mg/kg/day, read-out: Cholesterol HDL (percent variation vs hyperlipaemic controls).
The mark [3] stands for this setting: 100 mg/kg/day, read-out: Total Cholesterol (percent variation vs hyperlipaemic controls).
Where [4] appears, read: 100 mg/kg/day, read-out: Triglycerides (percent variation vs hyperlipaemic controls).
Setting [5] is: 300 mg/kg/day, by difference between total and HDL, read-out: Cholesterol VLDL + LDL (percent variation vs hyperlipaemic controls).
[6] abbreviates: 300 mg/kg/day, read-out: Cholesterol HDL (percent variation vs hyperlipaemic controls).
Setting [7] is: 300 mg/kg/day, read-out: Total Cholesterol (percent variation vs hyperlipaemic controls).
Setting [8] is: 300 mg/kg/day, read-out: Triglycerides (percent variation vs hyperlipaemic controls).

On to `CC(C)COC(=O)c1ccc(OCC(=O)CSc2nc3ccccc3o2)cc1` [Example 1, 2-[3-[(p-isobutyloxycarbonyl)-phenoxyl]-2-oxo-propylthio]-benzoxazole], for which the change in vivo at 100 mg/kg/day reads like this: under setting [1], -6.1%; under setting [2], 2.6%; under setting [3], -5.7%; under setting [4], -27.6%. Further, the change in vivo at 300 mg/kg/day under setting [5] was -6.4%, the change in vivo at 300 mg/kg/day under setting [6] turned out to be 17.9%, the change in vivo at 300 mg/kg/day under setting [7] was -5.2% and the change in vivo at 300 mg/kg/day under setting [8] is -18.4%. In addition, the “Hepatic index (percent variation vs hyperlipaemic controls)” value is reported as -8,5% (100 mg/kg/day) and -2,5% (300 mg/kg/day).

With `CC(C)COC(=O)c1ccc(OCC(O)CSc2nc3ccccc3[nH]2)cc1` (stereo not drawn) [Example 18], the change in vivo at 100 mg/kg/day reads like this: under setting [1], 0.2%; under setting [2], 3.2%; under setting [3], 1%; under setting [4], -19%. For the same compound, the change in vivo at 300 mg/kg/day reads like this: under setting [5], 9%; under setting [6], 6.5%; under setting [7], 9.1%; under setting [8], -13.1%. For the same compound, the “Hepatic index (percent variation vs hyperlipaemic controls)” value is listed as “+3,8%” (100 mg/kg/day) and “+3,9%” (300 mg/kg/day).

As for `CCOc1ccc2nc(SCC(O)COc3ccc(C(=O)OCC(C)C)cc3)sc2c1` (stereo not drawn) [Example 9, 2-[3-[(p-isobutyloxycarbonyl)-phenoxy]-2-hydroxy-propylthio]6-ethoxy-benzothiazole], the change in vivo at 100 mg/kg/day by setting is: under setting [1], 0.9%; under setting [2], 2.4%; under setting [3], 1%; under setting [4], 0.9%. Moreover, the change in vivo at 300 mg/kg/day runs as follows: under setting [5], -7%; under setting [6], -0.2%; under setting [7], -6.5%; under setting [8], 2.8%. In addition, the “Hepatic index (percent variation vs hyperlipaemic controls)” value was -0,8% (100 mg/kg/day) and -1,2% (300 mg/kg/day).

As for `CC(C)COC(=O)c1ccc(OCC(O)CSc2nccn2C)cc1` (stereo not drawn) [Example 4, 1-methyl-2-[3-[(p-isobutyloxycarbonyl)-phenoxy]-2-hydroxy-propylthio]-imidazole hydrochloride], the change in vivo at 100 mg/kg/day is, setting by setting: under setting [1], 9.2%; under setting [2], -3.4%; under setting [3], 7.7%; under setting [4], -5.9%. The change in vivo at 300 mg/kg/day is, setting by setting: under setting [5], -4%; under setting [6], 8.2%; under setting [7], -2.6%; under setting [8], 0.2%. The “Hepatic index (percent variation vs hyperlipaemic controls)” value is, setting by setting: (100 mg/kg/day) “+2,2%”; (300 mg/kg/day) “+4,3%”.

In the case of `CC(C)COC(=O)c1ccc(OCC(O)CSc2ncccn2)cc1` (stereo not drawn) [Example 5, 2-[3-[(p-isobutyloxycarbonyl)-phenoxy]-2-hydroxy-propylthio]-pirimidine hydrochloride], the change in vivo at 100 mg/kg/day is, setting by setting: under setting [1], 24%; under setting [2], -17.7%; under setting [3], 22.3%; under setting [4], 13.8%. Besides, the change in vivo at 300 mg/kg/day under setting [5] was -20.7%, the change in vivo at 300 mg/kg/day under setting [6] is -8.5%, the change in vivo at 300 mg/kg/day under setting [7] was -20.3% and the change in vivo at 300 mg/kg/day under setting [8] is -14.9%. The “Hepatic index (percent variation vs hyperlipaemic controls)” value is, setting by setting: (100 mg/kg/day) -4,1%; (300 mg/kg/day) -5,7%.

As for `CC(C)COC(=O)c1ccc(OCC(=O)CSc2nc3c([nH]2)c(=O)n(C)c(=O)n3C)cc1` [Example 3], the change in vivo at 100 mg/kg/day is, setting by setting: under setting [1], -1.3%; under setting [2], 11.7%; under setting [3], -1.1%; under setting [4], -6.5%. For the same compound, the change in vivo at 300 mg/kg/day is, setting by setting: under setting [5], -10.7%; under setting [6], 3.5%; under setting [7], -10.5%; under setting [8], -5.8%. Further, the “Hepatic index (percent variation vs hyperlipaemic controls)” value is, setting by setting: (100 mg/kg/day) “+3,2%”; (300 mg/kg/day) -1,5%.

For the compound `CC(C)COC(=O)c1ccc(OCCSc2nc3c(N)ncnc3n2[C@@H]2O[C@H](CO)[C@@H](O)[C@H]2O)cc1` [Example 27], the change in vivo at 100 mg/kg/day is -14.6% under setting [1], 0.1% under setting [2], -13.6% under setting [3] and -0.4% under setting [4]. The change in vivo at 300 mg/kg/day by setting is: under setting [5], -19.3%; under setting [6], 5.7%; under setting [7], -18.4%; under setting [8], -10.2%. Moreover, the “Hepatic index (percent variation vs hyperlipaemic controls)” value is listed as “+0,8%” (100 mg/kg/day) and “+0,7%” (300 mg/kg/day).

As for `CC(C)COC(=O)c1ccc(OCC(O)CSc2nc3cc4ccccc4cc3o2)cc1` (stereo not drawn) [Example 15], the change in vivo at 100 mg/kg/day by setting is: under setting [1], 17.6%; under setting [2], 0.8%; under setting [3], 16.5%; under setting [4], 5%. Further, the change in vivo at 300 mg/kg/day was -9.8% under setting [5], 13.4% under setting [6], -8.2% under setting [7] and 5.2% under setting [8]. Moreover, the “Hepatic index (percent variation vs hyperlipaemic controls)” value by setting is: (100 mg/kg/day) -2,6%; (300 mg/kg/day) “+0,6%”.

Take `CC(C)COC(=O)c1ccc(OCC(CSc2nc3ccccc3o2)OC(=O)c2cccnc2)cc1` (stereo not drawn) [Example 12]: the change in vivo at 100 mg/kg/day under setting [1] was 11.5%, the change in vivo at 100 mg/kg/day under setting [2] amounted to 12.5%, the change in vivo at 100 mg/kg/day under setting [3] is 11.6% and the change in vivo at 100 mg/kg/day under setting [4] was -19%. Also, the change in vivo at 300 mg/kg/day runs as follows: under setting [5], -8.9%; under setting [6], 8.6%; under setting [7], -7.8%; under setting [8], -39.4%. Moreover, the “Hepatic index (percent variation vs hyperlipaemic controls)” value is listed as -3,9% (100 mg/kg/day) and -10,8% (300 mg/kg/day).

For the compound `CC(C)COC(=O)c1ccc(OCC(O)CSc2nc3cc(Cl)ccc3s2)cc1` (stereo not drawn) [Example 10, 2-[3-[(p-isobutyloxycarbonyl)-phenoxy]-2-hydroxy-propylthio]5-chloro-benzothiazole], the change in vivo at 100 mg/kg/day under setting [1] was -20.4%, the change in vivo at 100 mg/kg/day under setting [2] was 5.5%, the change in vivo at 100 mg/kg/day under setting [3] is -18.6% and the change in vivo at 100 mg/kg/day under setting [4] was -8.5%. Besides, the change in vivo at 300 mg/kg/day is, setting by setting: under setting [5], -26.4%; under setting [6], 17.3%; under setting [7], -23.3%; under setting [8], -26.3%. Besides, the “Hepatic index (percent variation vs hyperlipaemic controls)” value is, setting by setting: (100 mg/kg/day) -2,2%; (300 mg/kg/day) -0,6%.

As to `CC(C)COC(=O)c1ccc(OCC(CSc2nc3c(N)ncnc3n2[C@@H]2O[C@H](CO)[C@@H](O)[C@H]2O)=NO)cc1` [Example 31], the change in vivo at 100 mg/kg/day under setting [1] is -6.6%, the change in vivo at 100 mg/kg/day under setting [2] is 3.2%, the change in vivo at 100 mg/kg/day under setting [3] is -0.3% and the change in vivo at 100 mg/kg/day under setting [4] is 14.7%. Further, the change in vivo at 300 mg/kg/day reads like this: under setting [5], -25.7%; under setting [6], -5.1%; under setting [7], -24.7%; under setting [8], -0.7%. Further, the “Hepatic index (percent variation vs hyperlipaemic controls)” value was “+3,6%” (100 mg/kg/day) and -1,5% (300 mg/kg/day).

In the case of `CC(C)COC(=O)c1ccc(OCCCSc2nc3c(N)ncnc3n2[C@@H]2O[C@H](CO)[C@@H](O)[C@H]2O)cc1` [Example 25], the change in vivo at 100 mg/kg/day reads like this: under setting [1], -10%; under setting [2], -1.2%; under setting [3], -9.7%; under setting [4], -3.3%. Also, the change in vivo at 300 mg/kg/day is -4.8% under setting [5], -7.1% under setting [6], -5.2% under setting [7] and 15.7% under setting [8]. For the same compound, the “Hepatic index (percent variation vs hyperlipaemic controls)” value reads like this: (100 mg/kg/day) -1,1%; (300 mg/kg/day) -2,8%.
